Measured values taken from paper PMC10353390, “Biological and Structural Analyses of New Potent Allosteric Inhibitors of HIV-1 Integrase” (Antimicrobial Agents and Chemotherapy, 2023).
Where two headings read alike, the source gives them in different places.

Tests used:
[1] = design: method as in ref 47 = [47]; 47 Mitchell M , Balakrishnan M , Brizgys G , Cai R , Lansdon E , Mulato A , Osier M , Wang J , Yu H , Sakowicz R . 2017 . Novel non-catalytic site integrase inhibitor with improved resistance profile.; settings: precluded further clinical investigation; cited from earlier work
HIV-1 IN = target: T1, HIV-1 IN (Human immunodeficiency virus type 1 group M subtype B, UniProt P12497); experiment: HTRF IN multimerization assay; assay type: biochemical; settings: mean ± SD
T1 construct: made in house
Source text: A key property of INLAIs is the ability to promote HIV-1 IN homo-multimerization ([39][–][42]). […] The maximal signal (plateau) in our IN aggregation assay corresponds to the highest HTRF signal increase under saturating INLAI concentration, relative to baseline level. Thus, MUT916, MUT884, MUT871, and MUT872 increased HIV-1 IN aggregation 3.7 to 4.4-fold, while BDM-2, BI-224436, and S-I-82 did so 5 to 6-fold (Table 1).

HXB2 HIV-1 strain = experiment: Multiple-round infection assay in MT4 cells, HXB2; assay type: cell-based; settings: Human immunodeficiency virus 1, HXB2; multiple-round infection, MT4 cells; mean ± SD, n > 5; read-out: EC50 HXB2
How it was run: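 Antiviral read-out was CellTiter-Glo luminescent viability of exponentially growing MT4 cells (10^6/mL). Cells were exposed to HIV-1 for 2 h at an MOI of 0.001 while compound was present at varying concentrations.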

NL4-3 HIV-1 strain = experiment: Multiple-round infection assay in MT4 cells, NL4-3; assay type: cell-based; settings: MT4 cells
[2] = Cytotoxicity assay in MT4 cells; assay type: cell-based; settings: human, MT4 cells (proliferating human T-cell line), CellTiter-Glo
Source text: Growth inhibition was monitored in a proliferating human T-cell line (MT4) with different concentrations of compounds, using the CellTiter-Glo luminescent reagent (Promega), as previously described ([12]).

[3] = tested on: lab-adapted and clinical HIV-1 isolates; experiment: Infection assays in primary T CD4+ lymphocytes; assay type: cell-based; settings: Human immunodeficiency virus 1, Lymphocyte
[4] = tested on: VSV-G-pseudotyped NL4-3Δenv-luc; experiment: microbe, parasite or virus in culture; assay type: cell-based, HIV-1; settings: Human immunodeficiency virus 1, NL43, MT4, read-out: EC50 in single-round infection
[5] = tested on: recombinant NL4-3 viruses with polymorphisms at IN positions 124 and 125; experiment: Multiple-round infection of MT4 cells with recombinant NL4-3 viruses polymorphic at IN positions 124 and 125; assay type: cell-based, HIV-1
How it was run: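 EC50 fold change relative to wild-type TT NL4-3 was derived from CellTiter-Glo viability of exponentially growing MT4 cells (10^6/mL). Cells were exposed for 2 h, with compounds, to NL4-3 clones bearing one of 15 IN 124/125 variants at MOI 0.001.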

[6] = tested on: primary HIV-1 isolates with polymorphisms at IN positions 124 and 125; experiment: Multiple-round infection of MT4 cells with primary HIV-1 isolates polymorphic at IN positions 124 and 125; assay type: cell-based; settings: primary isolate
How it was run: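 Antiviral potency read as protection of cell viability (CellTiter-Glo luminescence). Infection at MOI 0.001 lasted 2 h with compound present at a range of concentrations, using MT4 cells at 10^6/mL in exponential growth.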

[7] = tested on: HIV-1 strains resistant to INSTIs, NRTIs, NNRTIs or PIs; assay type: cell-based
How it was run: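 Cell viability (CellTiter-Glo luminescence) served as read-out in MT4 cells at 10^6/mL, infected 2 h at MOI 0.001 in presence of graded compound concentrations. Viruses: resistance-mutation recombinants in NL4-3 backbone plus resistant clinical isolates.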

[8] = tested on: NL4-3 HIV-1 with INLAI-selected IN single point mutations; assay type: cell-based
[9] = target: HIV-1 IN-LEDGF/p75 interaction (Human immunodeficiency virus type 1 group M subtype B, UniProt P12497); experiment: biochemical
Experimental: (§1) The INLAIs were tested for the ability to inhibit the HIV-1 IN-LEDGF/p75 interaction in a homogeneous time-resolved fluorescence (HTRF) assay. Our assays used either full-length IN and LEDGF/p75 proteins or their respective minimally sufficient interaction domains: the CCD of HIV-1 IN and the IBD of LEDGF/p75 (Table 1).
(§2) HTRF-based CCD-IBD interaction, IN-LEDGF/p75 interaction and IN multimerization assays were performed as described previously ([12]).

[10] = target: CCD of HIV-1 IN and IBD of LEDGF/p75 (Human immunodeficiency virus type 1 group M subtype B, UniProt P12497); experiment: biochemical
Experimental: as §1, §2

[11] = INSTI-resistant, NL4-3 background
[12] = INSTI-resistant, primary patient-derived strain

In the case of `Cc1cc2nc(-c3ccc4c(c3)c(C3CCN(C5COC5)CC3)nn4C)sc2c(-c2ccc(Cl)cc2)c1[C@H](OC(C)(C)C)C(=O)O` [GS-9822], the toxicity [1] is listed as “renal and urinary bladder toxicity”.

For `Cc1nc2ccccc2c(-c2ccc3c4c(ccnc24)CCO3)c1[C@H](OC(C)(C)C)C(=O)O` [BI-224436, reference compound], the AC50 (HIV-1 IN; concentration for 50% maximum activation of multimerization) was 34 ± 11 nM, the “IN multimerization Plateau” value (HIV-1 IN; maximum multimerization reached versus baseline) was 670 ± 210% and the EC50 (HXB2 HIV-1 strain) was 23 ± 8.4 nM. For the same compound, the EC90 (NL4-3 HIV-1 strain; Human immunodeficiency virus 1, NL43, multiple-round infection, from dose response curves, read-out: EC90 NL4-3) was 77 ± 34 nM, the EC50 (NL4-3 HIV-1 strain; Human immunodeficiency virus 1, NL43, multiple-round infection, mean ± SD, n > 5, read-out: EC50 NL4-3) was 51 ± 17 nM and the “Selectivity index CC50/EC50 NL4-3” value (NL4-3 HIV-1 strain) was >3,921. For the same compound, the CC50 [2] was greater than 200000 nM, the EC50 ([3]; read-out: EC50 33913N (B)) was 20 ± 9 nM and the EC50 ([3]; read-out: EC50 HXB2 (B)) was 14 ± 7 nM. For the same compound, the EC50 ([3]; read-out: EC50 KER2008 (A)) was 37 ± 12 nM, the EC50 ([3]; read-out: EC50 NL4-3 (B)) was 100 ± 80 nM and the EC50 ([3]; read-out: EC50 NP1525 (CRF01_AE)) was 61 ± 35 nM. The EC50 ([3]; read-out: EC50 NP1538 (B)) was 66 ± 42 nM, the EC50 [4] was 1400 ± 300 nM and the “Fold change in EC50 relative to parental NL4-3, AA” value ([5]; recombinant NL4-3, IN 124/125 AA) was 1. For the same compound, the “Fold change in EC50 relative to parental NL4-3, AM” value ([5]; recombinant NL4-3, IN 124/125 AM) was 0.4, the “Fold change in EC50 relative to parental NL4-3, AT” value ([5]; recombinant NL4-3, IN 124/125 AT) was 1 and the “Fold change in EC50 relative to parental NL4-3, AV” value ([5]; recombinant NL4-3, IN 124/125 AV) was 1. The “Fold change in EC50 relative to parental NL4-3, GA” value ([5]; recombinant NL4-3, IN 124/125 GA) was 1, the “Fold change in EC50 relative to parental NL4-3, GT” value ([5]; recombinant NL4-3, IN 124/125 GT) was 2 and the “Fold change in EC50 relative to parental NL4-3, NA” value ([5]; recombinant NL4-3, IN 124/125 NA) was 1. For the same compound, the “Fold change in EC50 relative to parental NL4-3, NT” value ([5]; recombinant NL4-3, IN 124/125 NT) was 1, the “Fold change in EC50 relative to parental NL4-3, NV” value ([5]; recombinant NL4-3, IN 124/125 NV) was 1 and the “Fold change in EC50 relative to parental NL4-3, SA” value ([5]; recombinant NL4-3, IN 124/125 SA) was 1. The “Fold change in EC50 relative to parental NL4-3, ST” value ([5]; recombinant NL4-3, IN 124/125 ST) was 1, the “Fold change in EC50 relative to parental NL4-3, TA” value ([5]; recombinant NL4-3, IN 124/125 TA) was 1 and the “Fold change in EC50 relative to parental NL4-3, TM” value ([5]; recombinant NL4-3, IN 124/125 TM) was 0.4. The “Fold change in EC50 relative to parental NL4-3, TV” value ([5]; recombinant NL4-3, IN 124/125 TV) was 1, the “Fold change in EC50 relative to parental NL4-3, CAM2BBY (CRF02)” value ([6]; IN 124/125 AA) was 2 and the “Fold change in EC50 relative to parental NL4-3, E0836M4 (D)” value ([6]; IN 124/125 AA) was 1. The “Fold change in EC50 relative to parental NL4-3, KER2008 (A)” value ([6]; IN 124/125 AA) was 1, the “Fold change in EC50 relative to parental NL4-3, NP1525 (CRF01)” value ([6]; IN 124/125 AA) was 1 and the “Fold change in EC50 relative to parental NL4-3, NP1695 (CRF02)” value ([6]; IN 124/125 AA) was 2. For the same compound, the “Fold change in EC50 relative to parental NL4-3, TZA125 (C)” value ([6]; IN 124/125 AA) was 0.5, the “Fold change in EC50 relative to parental NL4-3, KSM4030 (A)” value ([6]; IN 124/125 GA) was 1 and the “Fold change in EC50 relative to parental NL4-3, vGA (C)” value ([6]; IN 124/125 GA) was 2. The “Fold change in EC50 relative to parental NL4-3, 99ET14 (C)” value ([6]; IN 124/125 NA) was 1, the “Fold change in EC50 relative to parental NL4-3, NP1538 (B)” value ([6]; IN 124/125 NA) was 1 and the “Fold change in EC50 relative to parental NL4-3, vNA_1 (B)” value ([6]; IN 124/125 NA) was 2. The “Fold change in EC50 relative to parental NL4-3, vNA_2 (CRF02)” value ([6]; IN 124/125 NA) was 2, the “Fold change in EC50 relative to parental NL4-3, vNV (B)” value ([6]; IN 124/125 NV) was 1 and the “Fold change in EC50 relative to parental NL4-3, vSA_1 (B)” value ([6]; IN 124/125 SA) was 3. For the same compound, the “Fold change in EC50 relative to parental NL4-3, vSA_2 (CRF02)” value ([6]; IN 124/125 SA) was 2, the “Fold change in EC50 relative to parental NL4-3, vTA_1 (B)” value ([6]; IN 124/125 TA) was 2 and the “Fold change in EC50 relative to parental NL4-3, vTA_2 (CRF02)” value ([6]; IN 124/125 TA) was 2. For the same compound, the “Fold change in EC50 relative to NL4-3, E92Q” value [7, 11] was 1, the “Fold change in EC50 relative to NL4-3, G140S” value [7, 11] was 1 and the “Fold change in EC50 relative to NL4-3, G140S/Q148H” value [7, 11] was 1. The “Fold change in EC50 relative to NL4-3, N155H” value [7, 11] was 1, the “Fold change in EC50 relative to NL4-3, Q148H” value [7, 11] was 1 and the “Fold change in EC50 relative to NL4-3, Y143R” value [7, 11] was 1. The “Fold change in EC50 relative to NL4-3, E92Q/N155H (pat.)” value [7, 12] was 1, the “Fold change in EC50 relative to NL4-3, G140S/Q148H (pat.)” value [7, 12] was 1 and the “Fold change in EC50 relative to NL4-3, T97A/N155H (pat.)” value [7, 12] was 1. The “Fold change in EC50 relative to NL4-3, NLAY351717” value ([7]; NRTI-resistant clone) was 1, the “Fold change in EC50 relative to NL4-3, NLAY351753” value ([7]; NRTI/NNRTI-resistant clone) was 1 and the “Fold change in EC50 relative to NL4-3, K103N/Y181C” value ([7]; NRTI/NNRTIs group, NL4-3 background) was 1. For the same compound, the “Fold change in EC50 relative to NL4-3, ARP-4595” value ([7]; PI-resistant virus) was 0.4, the “Fold change in EC50 relative to NL4-3, ARP-4596” value ([7]; PI-resistant virus) was 0.5 and the “Fold change in EC50 relative to NL4-3, ARP-11801” value ([7]; PI-resistant virus) was 1. For the same compound, the “Fold change in EC50 relative to NL4-3, ARP-11803” value ([7]; PI-resistant virus) was 1, the “Fold change in EC50 relative to NL4-3, ARP-11807” value ([7]; PI-resistant virus) was 1 and the “Fold change in EC50 relative to NL4-3, ARP-11808” value ([7]; PI-resistant virus) was 1. For the same compound, the “EC50 fold change compared to wild type NL4-3, A128T” value [8] was 6, the “EC50 fold change compared to wild type NL4-3, H171Q” value [8] was 4 and the “EC50 fold change compared to wild type NL4-3, N222K” value [8] was 2. The “EC50 fold change compared to wild type NL4-3, T174I” value [8] was 706, the “EC50 fold change compared to wild type NL4-3, Y99H” value [8] was 2 and the IC50 [9] was 90 ± 19 nM. For the same compound, the IC50 [10] was 73 ± 13 nM.
